Results published in patent US20100291592A1, “NOVEL MARKER FOR SENSITIVITY AGAINST SULFONAMIDE COMPOUND” (priority 2006, published 2010).

Key:
[1] = tested on: cancer cell line resistant to E7070; conditions: WO2006/030941 and WO2006/030947; cited from earlier work
[2] = tested on: EGFR1; experiment: EGFR1 expression level in cultured HCT116-C9 (mass spectrometry, 12C/13C-leucine labelling); format: cell-based, human; conditions: HCT116-C9, 1 μM E7070, 24 hours, LC-MS/MS, treated/untreated
Description: First, RPMI-1640 (containing 10% FBS) supplemented with ^13C-labeled L-leucine (^13C-leucine, Cambridge Isotope Labs) and RPMI-1640 (containing 10% FBS) supplemented with non-isotope-labeled L-leucine (^12C-leucine) were prepared. Then, human colon cancer cell line HCT116-C9 was cultured in each medium through at least the fifth passage. HCT116-C9 was a subline separated from human colon cancer cell line HCT116 (obtained from ATCC) and known as a cell line highly sensitive to […] (Molecular Cancer Therapeutics, 2002, 1, 275-286). Thereafter, each cell was seeded in a 15-cm-diameter culture dish at a concentration of 1.0×10^7 cells/50 ml. Then, 24 hours later, 1 μM of […] was added to HCT116-C9 cultured in the ^12C-leucine-containing medium and nothing was added to HCTZ 16-C9 cultured in the ^13C-leucine-containing medium. These cells were continued culturing. Twenty-four hours later, the cells were washed twice with a phosphate buffer saline according to a routine procedure, added with 3 ml of M-PER (PIERCE) to solubilize the cells and then equal amounts of them were mixed. The cell lysates were dialyzed by a routine procedure to sublimate the solutions, and digested with trypsin, thereby obtaining peptide samples. The resulting peptide samples were analyzed with LC-MS/MS. […]

Compound	Cross-resistance of E7070-resistant cancer cell line (antiproliferative activity) [1]	Peak intensity ratio (12C/13C) of EGFR1-derived peptide fragment [2]
O=C(Nc1ccc(Cl)cc1)NS(=O)(=O)c1ccc2c(c1)CCC2 [LY186641, N-[[(4-chlorophenyl)amino]carbonyl]-2,3-dihydro-1H-indene-5-sulfonamide]	cross-resistance	–
O=C(NS(=O)(=O)c1ccc(Br)s1)c1ccc(Cl)cc1Cl [LY573636, N-(2,4-dichlorobenzoyl)-5-bromothiophene-2-sulfonamide]	cross-resistance	–
Nc1ccc(S(=O)(=O)Nc2cnc3c(Cl)cccc3n2)cc1 [CQS, 2-sulfanylamide-5-chloroquinoxaline]	cross-resistance	–
O=C(NS(=O)(=O)c1ccc(Cl)cc1)c1ccc(Cl)cc1Cl [LY-ASAP, N-(2,4-dichlorobenzoyl)-4-chlorophenylsulfonamide]	cross-resistance	–
O=C(Nc1ccc(Cl)c(Cl)c1)NS(=O)(=O)c1ccc2c(c1)CCO2 [LY295501, N-[[(3,4-dichlorophenyl)amino]carbonyl]-2,3-dihydrobenzofuran-5-sulfonamide]	cross-resistance	–
NS(=O)(=O)c1ccc(S(=O)(=O)Nc2cccc3c(Cl)c[nH]c23)cc1 [E7070, N-(3-chloro-1H-indole-7-yl)-1,4-benzenedisulfonamide]	–	0.6-0.8
